Blank lines part the entries; values can stand above or below the compound they belong to. The source made the active and inactive calls. The rule behind the calls is not given here.
Tests used:
[1] = target: Histone deacetylase 2 (Homo sapiens, UniProt Q92769); experiment: Inhibition of human recombinant HDAC2 using Fluor de Lys Green as substrate incubated for 30 mins by fluorescence assay
[2] = test system: HT-29; experiment: Antiproliferative activity against human HT-29 cells assessed as reduction in cell number after 72 hrs by cell counter analysis; type: functional, cell-based; settings: HT-29, 72 h
[3] = target: Histone deacetylase; experiment: Inhibition of HDAC in human HeLa cells using BOC-Ac-Lys-AMC as substrate incubated for 4 hrs by fluorescence assay; type: cell-based
[4] = Antiproliferative activity human HCT116 cells assessed as reduction in cell number after 72 hrs by cell counter analysis; type: functional, cell-based; settings: HCT-116, 72 h
[5] = test system: LoVo; experiment: Antiproliferative activity against human LoVo cells assessed as reduction in cell number after 72 hrs by cell counter analysis; type: functional, cell-based
[6] = target: Histone deacetylase; experiment: Inhibition of HDAC in human HeLa nuclear extract using BOC-Ac-Lys-AMC as substrate incubated for 90 mins by fluorescence assay; type: protein assay
[7] = Antiproliferative activity against human H460 cells assessed as reduction in cell number after 72 hrs by cell counter analysis; type: functional, cell-based; settings: NCI-H460, 72 h
[8] = Antiproliferative activity against human IGROV1 cells assessed as reduction in cell number after 72 hrs by cell counter analysis; type: functional, cell-based; settings: IGROV-1, 72 h
[9] = test system: HT-29; experiment: Antiproliferative activity against mitoxantrone resistant human HT-29 cells assessed as reduction in cell number after 72 hrs by cell counter analysis; type: functional, cell-based; settings: HT-29, 72 h
[10] = test system: IGROV-1; experiment: Induction of apoptosis in human IGROV1 cells at 0.3 uM after 72 hrs by TUNEL assay (reference value: 3%); type: functional
[11] = animal or person; type: functional; settings: Homo sapiens, HCT-116, po, read-out: TGI
Description: Antitumor activity against human HCT116 cells xenografted in athymic Swiss nude mouse assessed as tumor growth inhibition at 175 mg/kg, po for 5 days a week for 4 weeks relative to control

[12] = Antiproliferative activity against human LoVo/DX cells assessed as reduction in cell number after 72 hrs by cell counter analysis; type: functional, cell-based
[13] = Cell cycle arrest in human IGROV1 cells assessed as accumulation at G1 phase at 0.3 to 1 uM after 72 hrs by propidium iodide staining based flow cytometry; type: functional; settings: IGROV-1
[14] = test system: IGROV-1; experiment: Induction of apoptosis in human IGROV1 cells at 1 uM after 72 hrs by TUNEL assay (reference value: 3%); type: functional

Histone deacetylase 2, sequence (Q92769 whole entry): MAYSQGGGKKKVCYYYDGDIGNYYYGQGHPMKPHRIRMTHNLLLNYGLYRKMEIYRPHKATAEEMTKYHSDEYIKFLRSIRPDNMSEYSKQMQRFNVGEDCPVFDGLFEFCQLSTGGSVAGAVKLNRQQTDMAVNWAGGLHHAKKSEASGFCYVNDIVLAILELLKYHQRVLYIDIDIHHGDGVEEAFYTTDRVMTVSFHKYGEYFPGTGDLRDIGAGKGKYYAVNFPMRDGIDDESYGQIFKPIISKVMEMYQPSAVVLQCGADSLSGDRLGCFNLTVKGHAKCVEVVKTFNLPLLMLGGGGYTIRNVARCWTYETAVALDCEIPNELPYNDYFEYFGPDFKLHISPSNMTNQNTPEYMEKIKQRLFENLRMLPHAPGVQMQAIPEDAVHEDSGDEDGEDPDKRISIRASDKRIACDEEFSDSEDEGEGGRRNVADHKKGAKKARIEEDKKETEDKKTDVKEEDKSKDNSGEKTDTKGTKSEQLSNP

IC50 [1]: 11800 nM
IC50 [3]: 2500 nM
IC50 [6]: 2600 nM
SMILES: CC(C)=C(c1ccccc1)c1ccc(/C=C/C(=O)NO)cc1
IC50 [2]: 4120 nM
IC50 [4]: 2000 nM
IC50 [5]: 2790 nM
IC50 [7]: 5500 nM
IC50 [8]: 2500 nM

SMILES: COc1ccc(-c2ccc(/C=C/C(=O)NO)cc2)cc1
IC50 [2]: 1580 nM
IC50 [9]: 1730 nM
IC50 [4]: 260 nM
IC50 [7]: 3700 nM
IC50 [8]: 750 nM

SMILES: O=C(CCCCCCC(=O)Nc1ccccc1)NO [VORINOSTAT]
IC50 [4]: 310 nM
IC50 [8]: 2200 nM

SMILES: Cc1[nH]c2ccccc2c1/C=C/c1ccccc1-c1ccc(/C=C/C(=O)NO)cc1
Activity [10]: 34%
IC50 [2]: 1370 nM
IC50 [9]: 2440 nM
IC50 [4]: 270 nM
inhibition in vivo at 175 mg/kg [11]: 68%
IC50 [5]: 6570 nM
IC50 [12]: 4620 nM
IC50 [7]: 1410 nM
IC50 [8]: 350 nM
Activity [13]: Active
Activity [14]: 79%

From ChEMBL document CHEMBL3792283, “Biphenyl-4-yl-acrylohydroxamic acids: Identification of a novel indolyl-substituted HDAC inhibitor with antitumor activity” (Eur J Med Chem, 2016)
